Measurements taken from patent US20070213393A1, “COMPOSITIONS AND METHODS FOR TREATING INFLAMMATORY CONDITIONS UTILIZING PROTEIN OR POLYSACCHARIDE CONTAINING ANTI-MICROTUBULE AGENTS” (ANGIOTECH INTERNATIONAL AG, priority 2001, published 2007).
Converted amounts (≈) assume the structure as drawn. Blank lines part the entries; values can stand above or below the molecule they belong to.

What was measured:
[1] = Compatibility of co-solvent carrier with hyaluronic acid hydrogel (visually observed turbidity); assay type: physicochemical; settings: solvent added in 200 μl aliquots to 2 ml gel of 20 mg/ml hyaluronic acid in water; maximum added 5 ml
Method: Co-solvent systems were prepared by the addition of water miscible organic solvents to a hyaluronic acid (HA) gel containing 20 mg/ml hyaluronic acid in water. The organic solvent was added with stirring in aliquots of 200 μl. After the addition of each aliquot, the mixture was allowed to stir for several minutes and observed for signs of turbidity or rapidly changing viscosity. At the first sign of visually observed turbidity, the volume of organic solvent added was noted and the ratio of co-solvent to water calculated. In the event that turbidity was not observed the maximum amount of solvent added was 5 ml to 2 ml of gel.

[2] = physchem; settings: aqueous with cosolvent or surfactant or cyclodextrin, thermodynamic from solid
Method: After determining suitability in this manner, co-solvent systems may be further assessed in terms of biocompatibility. Solubility was determined as follows:
To a 1 ml aliquot of a co-solvent system described by the ratio of organic solvent to water was added precisely to 5 and 10 mg±10% paclitaxel. The mixtures were equilibrated at room temperature for 16 hours and observed for clarity and particulates in the liquid.

[3] = tested on: neutrophil; settings: cited from earlier work
[4] = tested on: T-cell; settings: cited from earlier work
[5] = tested on: synoviocytes; settings: cited from earlier work
[6] = tested on: AP-1; settings: via reduced AP-1 binding to DNA; cited from earlier work
[7] = tested on: collagen induced arthritis in an animal model; settings: cited from earlier work
[8] = tested on: normal chondrocytes and non-proliferating synoviocytes; settings: cited from earlier work

Max. amt. added to HA Gel without turbidity [1]: >5 ml in 2 ml
Compound: C[S+](C)[O-] [Dimethylsulfoxide]

Max. amt. added to HA Gel without turbidity [1]: 4 ml in 2 ml
Compound: CCO [Ethanol]

Max. amt. added to HA Gel without turbidity [1]: 2 ml in 2 ml
Compound: CCOCCOCCO [Ethoxydiglycol]

Max. amt. added to HA Gel without turbidity [1]: >5 ml in 2 ml
Compound: CN1CCCC1=O [N-methylpyrrolidone]

solubility at 16 h ([2]; Dimethylsulfoxide:water co-solvent mixture): < 5000 µg/mL | solubility at 16 h ([2]; Ethanol:water co-solvent mixture): 5000 to 10000 µg/mL (≈ 5.86 to 11.7 mM) | solubility at 16 h ([2]; Ethoxydiglycol:water co-solvent mixture): < 5000 µg/mL | solubility at 16 h ([2]; N-methylpyrrolidone:water co-solvent mixture): > 10000 µg/mL | solubility at 16 h ([2]; PEG 200:water co-solvent mixture): 5000 to 10000 µg/mL (≈ 5.86 to 11.7 mM)
Compound: CC(=O)O[C@H]1C(=O)[C@@]2(C)[C@H]([C@H](OC(=O)c3ccccc3)[C@]3(O)C[C@H](OC(=O)[C@H](O)[C@@H](NC(=O)c4ccccc4)c4ccccc4)C(C)=C1C3(C)C)[C@]1(OC(C)=O)CO[C@@H]1C[C@@H]2O [paclitaxel]
neutrophil activation [3]: inhibits | T-cell function [4]: inhibits | T-cell response to stimuli [4]: decreases | apoptosis in synoviocytes [5]: induces | proliferation of synoviocytes [5]: prevents | AP-1 transcription activity [6]: inhibits | collagen induced arthritis [7]: inhibits | toxicity to non-proliferating cells [8]: non-toxic
